Test results published in patent US8168568B1, “Combinatorial therapy for protein signaling diseases” (The United States of America, as represented by the …, priority 2003, dated 2012).

Experiments:
Format in all cases: cell-based, human
EGFR = EGFR activation time course by reverse phase protein array; conditions: for EGFR receptor phosphorylation: time course experiments, 100 ng/ml EGF, 10 μM PGE2, or 25 ng/ml TGF-α
Description: For the time course assays, colon cancer cells were plated in 24-well plates (1×10e5 cells/well), grown to 80% confluency, and serum-starved for 24 hours. […] Unstimulated cells were used as a control for basal activity. To assess TGF-inhibition, cells were pretreated with 100 ng/ml neutralizing TGF-α antibody for 1 hour before stimulation. […] To harvest cells at each timepoint, a number of cells were removed from wells by gentle scraping and suspended in 100 μL of heated SDS sample buffer (50% Tissue Protein Extraction Reagent, 48% 2× Tris-Glycine SDS Sample Buffer and 2% β-Mercaptoethanol) containing 10 μL of protease inhibitor cocktail per ml of lysate. Cells were immediately transferred to a chilled tube.
The reverse-phase protein array were as previously described (Paweletz et al). Briefly, cell lysates were subjected to one freeze/thaw cycle followed by vigorous vortexing to ensure complete liberation of proteins from the cytosol and the cell membrane. Immediately prior to spotting onto nitrocellulose slides, the samples were boiled for 5 minutes to ensure complete denaturation. Samples were spun at high speed in a microcentrifuge to remove any remaining cellular debris. Nanoliter amounts of the samples were arrayed onto nitrocellulose coated slides (Schleicher and Schuell Bioscience Inc., Keene, N.H.). Each sample was spotted nine times to form a “square” pattern consisting of three dilutions, left to right (neat, 1:2, 1:4), and three replicates of each dilution, top to bottom. Sample buffer alone was spotted as a negative control.
Slides were prepared for signal development by incubating for 10 minutes in a 10% solution of Mild Re-Blot Plus (Chemicon Intl, Temecula, Calif.) to expose antigenic sites embedded in the nitrocellulose. This was followed by two 5-minute washes in PBS and incubation in a casein-based blocking solution (Applied Biosystems, Foster City, Calif.) for at least 1 hour. Signal was developed using an automated staining system based on avidin/biotin and peroxidase methodologies (DakoCytomation, Carpinteria, Calif.). Staining is completed by a 5-minute incubation with 3,3′diaminobenzidine tetrahydrochloride (DAB) which results in a brown-colored precipitate at the antigen site. After signal development, slides were scanned on an Epson flatbed scanner at 1200 dpi. Scanned images (saved as an inverted grayscale TIFF file in Adobe Photoshop version 5.5) were analyzed with ImageQuant version 5.2 software (Molecular Dynamics, Amersham, UK). The spot intensity after background correction was proportional to the concentration of the target protein. […]
Activation is expressed as the relative intensity of stimulated cells compared with unstimulated cells on reverse phase protein microarray. […]

[1] = system: EGF stimulated ATCC CCL-250 cancer cells; experiment: 10 day colony growth bioassay; conditions: EGF stimulated CCL-250, FIG. 9
EGFr signaling pathway = experiment: Reverse phase protein microarray of EGFr pathway nodes in EGF-stimulated colon cancer cells treated with kinase inhibitors; conditions: CCL-250 cells, drug treatment 30 minutes, then EGF 0.1 μg/mL; FIG. 6A
Description: The epidermal growth factor receptor (EGFr) signaling pathway, which is a well-characterized pathway where interdependence is already known, was investigated. […]. […] In these experiments, colon cancer cells, ATCC CCL-250, which over-express EGFr 25-75% of the time, were cultured. […] Impact of drug compounds on the pathway was evaluated by treating the cells with a drug compound or a combination of drug compounds for 30 minutes. […] Cells were then scraped from the bottom surface of the wells using a pipet tip and placed into mini-centrifuge tubes. The lysates were then vortexed, boiled for 5 minutes, and centrifuged for 20 minutes at 14,000 rpm. The lysates were arrayed using the reverse phase microarray techniques described in Paweletz et al. […] In contrast to forward-phase protein arrays that immobilize the probe, the reverse phase protein array immobilizes the whole repertoire of patient proteins (e.g. by a nitrocellulose substrate) that represent the state of individual tissue cell populations. Probes are then applied to the immobilized proteins. […] The phospho-antibodies bind to the phosphorylated, or activated, form of the protein. The other antibody binds to and is used to determine the total amount of the protein in the sample. Using the values from these two antibodies, the relative activation of that proteins may be calculated as the ratio of phosphorylated protein to total protein.

[2] = system: c-erbB1, MEK, and ERK kinases; experiment: Kinase substrate array time course with and without MEK inhibitor; conditions: CCL250, 10 uM pretreatment 1 hour, 100 ng/ml EGF; FIG. 18B
Description: Separate aliquots at a series of EGF post treatment time intervals were taken and cell lysates were prepared for kinase substrate array analysis.
To determine if this technology can capture the time-course of linked kinase network events, a series of known connected phosphorylation substrates were analyzed: epidermal growth factor receptor (c-erbB1), MEK, and ERK kinases using a colon cancer cell line (CCL250) with over-expressed c-erbB1 receptor levels. […] When these events are analyzed by reverse phase array, both ERK and MEK phosphorylation show a coordinately linked kinetic profile which is expected since ERK is a direct substrate of MEK kinase (FIG. 18A). […] Phosphorylation of kinase substrates is a transient event, as phosphatases promptly dephosphorylate the substrate as the cascade continues.

COX-2 protein = COX-2 protein expression by reverse phase protein array and Western blot; conditions: colon cancer cells, every 24 hours over 72 hours; data not shown
Description: Lysates that were analyzed by Western blot were evaluated for protein concentration with the BCA Protein Assay Kit (Pierce, Rockford, Ill.). Details of Western analyses are well known. Briefly, equal amounts of proteins were fractionated on 4-20% SDS-PAGE gels and transferred to PVDF membranes. After sequential incubations with primary antibodies and peroxidase-conjugated goat anti-rabbit antibodies (Tropix, Bedford, Mass.), signal was developed using an enhanced chemiluminescent staining system (Tropix, Bedford, Mass.). Protein loading was normalized for phospho- and nonphospho-proteins with the total self-protein and β-actin, respectively.
Protein loading was controlled for by expressing COX-2 protein relative to β-actin.

Compound | EGFR receptor phosphorylation (EGFR) | shunting via the CREB node (relative expression of CREB) (EGFr signaling pathway) | other results
TGF-alpha: EGFR ligand used as stimulus | can be induced | – | –
NC(=O)c1nnn(Cc2cc(Cl)c(C(=O)c3ccc(Cl)cc3)c(Cl)c2)c1N [CAI, carboxyamidotriazole] | – | – | inhibition of cell proliferation [1]: no significant-growth inhibition
COc1cccc(-c2cc(=O)c3ccccc3o2)c1N [PD98059, 2-(2′-amino-3′-methoxyphenyl)-oxanaphthalen-4-one] | – | causes shunting through this node | activation of ERK (EGFr signaling pathway): diminishing the activation of the next node along the pathway, ERK; phosphorylation of c-erbB1, MEK and ERK after EGF [2]: only ERK phosphorylation was effected
COc1cc2ncnc(Nc3cccc(Cl)c3)c2cc1OC [AG1478, 4-(3-chloroanilino)-6,7-dimethoxyquinazoline] | – | not seen | –
EGF: recombinant epidermal growth factor, EGFR ligand used as stimulus | can be induced | – | –
CCCCC[C@H](O)/C=C/[C@H]1[C@H](O)CC(=O)[C@@H]1C/C=C\CCCC(=O)O [PGE2, prostaglandin E2] | can be induced | – | EGFR activation with or without TGF-α inhibitor pretreatment (EGFR; harvested at 5 minutes, 100 ng/ml neutralizing TGF-α antibody 1 hour, FIG. 11): requirement of TGF-α for the activation of EGFR by PGE2; expression of COX-2 protein relative to β-actin (COX-2 protein): induced increased expression of COX-2 protein
